According to patent publication US20250188090A1, “A METHOD FOR EXTRACTION OF ALKALOID” (priority 2022, published 2025):

Format: physicochemical
Conditions: pH 9

In the case of `COC1=CC=C2[C@H]3Cc4ccc(O)c5c4[C@@]2(CCN3C)[C@H]1O5` [oripavine], the “% in the solvent after a 1-stage extraction (corresponding to D)” value is reported as 93.3%, the “maximum D value” is reported as 14.5 and the “single stage extraction efficiency for oripavine” value is reported as 96%.
